Assay results: ChEMBL document CHEMBL1129093, “Synthesis and biological activities of a novel class of azole-containing antifungal agents” (1996)
In brackets after ≈: the same amount, converted by molar mass.

Experiments:
[1] = test system: Trichophyton benhamiae; test: (§1) Compound was tested in vitro for antifungal activity against Trichophyton mentagrophytes.; format: functional, trichophyton mentagro
[2] = test system: Aspergillus flavus; test: (§2) Compound was tested in vitro for antifungal activity against Aspergillus flavus.; format: functional, asperigillus
[3] = test system: Candida albicans; test: Compound was tested in vitro for antifungal activity against Candida albicans.; format: functional
[4] = test system: Kluyveromyces marxianus; test: Compound was tested in vitro for antifungal activity against Candida kefyr.; format: functional
[5] = test system: Cryptococcus neoformans; test: Compound was tested in vitro for antifungal activity against Cryptococcus neoformans.; format: functional
[6] = test system: Aspergillus fumigatus; test: Compound was tested in vitro for antifungal activity against Aspergillus fumigatus.; format: functional
[7] = test system: Aspergillus flavus; test: as §2; format: functional
[8] = test system: Trichophyton benhamiae; test: as §1; format: functional, Arthroderma benhamiae

Structure (SMILES) | MIC [1] [µg/mL] | MIC [2] [µg/mL] | MIC [3] [µg/mL] | MIC [4] [µg/mL] | MIC [5] [µg/mL] | MIC [6] [µg/mL] | MIC [7] [µg/mL] | MIC [8] [µg/mL]
Clc1ccc(CN2CCc3ccccc3C2Cn2cncn2)cc1 (stereo not drawn) | 0.25 (≈ 0.738 µM) | 25 (≈ 73.8 µM) | > 50 | 0.39 (≈ 1.15 µM) | 6.25 (≈ 18.4 µM) | 4 (≈ 11.8 µM) | – | –
c1ccc(CN2CCc3ccccc3C2Cn2ccnc2)cc1 (stereo not drawn) | 0.19 (≈ 0.626 µM) | 25 (≈ 82.4 µM) | > 50 | > 50 | > 50 | 25 (≈ 82.4 µM) | – | –
Clc1ccc(CN2CCc3ccccc3C2Cn2ccnc2)c(Cl)c1 (stereo not drawn) | 6.25 (≈ 16.8 µM) | 0.78 (≈ 2.1 µM) | > 50 | 0.19 (≈ 0.51 µM) | 1.56 (≈ 4.19 µM) | 0.39 (≈ 1.05 µM) | – | –
Fc1ccc(CN2CCc3ccccc3C2Cn2cncn2)cc1 (stereo not drawn) | 1 (≈ 3.1 µM) | > 50 | > 50 | > 50 | > 50 | > 50 | – | –
Fc1ccc(CN2CCc3ccccc3C2Cn2ccnc2)c(F)c1 (stereo not drawn) | 0.39 (≈ 1.15 µM) | 0.78 (≈ 2.3 µM) | > 50 | > 50 | > 50 | 6.25 (≈ 18.4 µM) | – | –
Fc1ccc(CN2CCc3ccccc3C2Cn2cncn2)c(F)c1 (stereo not drawn) | 2 (≈ 5.88 µM) | > 50 | > 50 | 0.39 (≈ 1.15 µM) | > 50 | > 50 | – | –
Clc1ccc(CN2CCc3ccccc3C2Cn2ccnc2)cc1 (stereo not drawn) | 0.19 (≈ 0.562 µM) | 0.19 (≈ 0.562 µM) | > 50 | 0.1 (≈ 0.296 µM) | 0.39 (≈ 1.15 µM) | 3.12 (≈ 9.23 µM) | – | –
Clc1ccc(CN2CCc3ccccc3C2Cn2cncn2)c(Cl)c1 (stereo not drawn) | 4 (≈ 10.7 µM) | > 50 | > 50 | > 50 | 12.5 (≈ 33.5 µM) | > 50 | – | –
Fc1ccc(CN2CCc3ccccc3C2Cn2ccnc2)cc1 (stereo not drawn) | 0.1 (≈ 0.311 µM) | 6.25 (≈ 19.4 µM) | > 50 | > 50 | > 50 | 12.5 (≈ 38.9 µM) | – | –
c1ccc(CN2CCc3ccccc3C2Cn2cncn2)cc1 (stereo not drawn) | 4 (≈ 13.1 µM) | > 50 | > 50 | > 50 | > 50 | > 50 | – | –
C[C@@H]1[C@H](O)[C@@H](C)/C=C/C=C/C=C/C=C/C=C/C=C/C=C/[C@H](O[C@@H]2O[C@H](C)[C@@H](O)[C@H](N)[C@@H]2O)C[C@@H]2O[C@](O)(C[C@@H](O)C[C@@H](O)[C@H](O)CC[C@@H](O)C[C@@H](O)CC(=O)O[C@H]1C)C[C@H](O)[C@H]2C(=O)O [AMPHOTERICIN B] | 1.56 (≈ 1.69 µM) | 12.5 (≈ 13.5 µM) | 0.19 (≈ 0.206 µM) | 0.19 (≈ 0.206 µM) | 0.19 (≈ 0.206 µM) | 25 (≈ 27.1 µM) | – | –
OC(Cn1cncn1)(Cn1cncn1)c1ccc(F)cc1F [FLUCONAZOLE] | – | – | > 50 | 0.39 (≈ 1.27 µM) | 3.12 (≈ 10.2 µM) | > 50 | > 50 | > 50
Clc1ccc(COC(Cn2ccnc2)c2ccc(Cl)cc2Cl)c(Cl)c1 (stereo not drawn) [MICONAZOLE] | – | – | 12.5 (≈ 30 µM) | 0.09 (≈ 0.216 µM) | 0.19 (≈ 0.457 µM) | 0.39 (≈ 0.937 µM) | 0.39 (≈ 0.937 µM) | 0.39 (≈ 0.937 µM)
